Target: T1, Human BCL-XL protein (N-terminal HiBiT tagged BCL-XL expressed in HT1080 cells) (Homo sapiens, UniProt Q07817)
T1 construct: expressed in transfected cells; host or cells: HT-1080 (ATCC CCL-121), stably transduced with lentivirus pLV-UBC-N-HiBiT-BCL-XL-PGK-puro and selected with puromycin
Assay: HiBiT Based Degradation Assay
Type: cell-based
Settings: 24 hours incubation; for DC50: BCL-XL degradation, HT1080 cells expressing N-HiBiT-BCL-XL, normalized with DMSO control, geometric mean for multiple data points, read-out: EC50 (24 h); for Ymin (24 h): bottom of BCL-XL degradation curve (remaining HiBiT-BCL-XL signal vs DMSO control), HT1080 cells
Method in brief: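 BCL-XL degradation was read as Nano-Glo HiBiT lytic luminescence relative to DMSO after a 24 h compound treatment of HT1080 cells carrying stably integrated N-HiBiT-BCL-XL. EC50 values come from four-parameter logistic curves, with the hook-curve minimum fixed as bottom, and are geometric means where tested repeatedly.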

T1 sequence (Q07817 whole entry): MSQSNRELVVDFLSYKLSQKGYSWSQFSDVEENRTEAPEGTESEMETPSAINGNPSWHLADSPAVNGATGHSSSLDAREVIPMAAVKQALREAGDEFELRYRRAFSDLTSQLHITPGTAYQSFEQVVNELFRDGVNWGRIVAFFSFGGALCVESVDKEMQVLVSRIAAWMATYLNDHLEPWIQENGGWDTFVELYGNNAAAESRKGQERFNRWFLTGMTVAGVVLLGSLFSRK

Row | DC50 | Ymin (24 h) | Compound
1 | 10 to 100 nM | B (30% ≤ Ymin < 50%) | Cc1cc(OCC2CC3(CCN(CC(=O)Nc4cc5c(cc4F)c(C4CCC(=O)NC4=O)nn5C)CC3)C2)ccc1-c1ccc(N2CCc3cccc(C(=O)Nc4nc5ccccc5s4)c3C2)nc1C(=O)O (stereo not drawn) [Compound 123]
2 | < 10 nM | B (30% ≤ Ymin < 50%) | Cn1nc(C2CCC(=O)NC2=O)c2ccc(NC(=O)CN3CCC4(CC3)CC(COc3ccc(-c5ccc(N6CCc7cccc(C(=O)Nc8nc9ccccc9s8)c7C6)nc5C(=O)O)c(C(F)(F)F)c3)C4)cc21 (stereo not drawn) [Compound 131, 6-(8-(benzo[d]thiazol-2-ylcarbamoyl)-3,4-dihydroisoquinolin-2(1H)-yl)-3-(4-((7-(2-((3-(2,6-dioxopiperidin-3-yl)-1-methyl-1H-indazol-6-yl)amino)-2-oxoethyl)-7-azaspiro[3.5]nonan-2-yl)methoxy)-2-(trifluoromethyl)phenyl)picolinic acid]
3 | 10 to 100 nM | B (30% ≤ Ymin < 50%) | Cn1nc(C2CCC(=O)NC2=O)c2ccc(NC(=O)CN3CCC(CCCOc4ccc(-c5ccc(N6CCc7cccc(C(=O)Nc8nc9ccccc9s8)c7C6)nc5C(=O)O)c(F)c4)CC3)c(F)c21 (stereo not drawn) [Compound 212, 6-(8-(benzo[d]thiazol-2-ylcarbamoyl)-3,4-dihydroisoquinolin-2(1H)-yl)-3-(4-(3-(1-(2-((3-(2,6-dioxopiperidin-3-yl)-7-fluoro-1-methyl-1H-indazol-6-yl)amino)-2-oxoethyl)piperidin-4-yl)propoxy)-2-fluorophenyl)picolinic acid]
4 | < 10 nM | A (Ymin < 30%) | COc1c(NC(=O)CN2CC[C@H](CCCOc3ccc(-c4ccc(N5CCc6cccc(C(=O)Nc7nc8ccccc8s7)c6C5)nc4C(=O)O)c(C)c3)C[C@H]2C)ccc2c(C3CCC(=O)NC3=O)nn(C)c12 (stereo partly drawn) [Compound 210c]
5 | < 10 nM | B (30% ≤ Ymin < 50%) | Cc1c(OC2CC3(CCN(CC(=O)Nc4ccc5c(C6CCC(=O)NC6=O)nn(C)c5c4)CC3)C2)cccc1-c1ccc(N2CCc3ccnc(C(=O)Nc4nc5ccccc5s4)c3C2)nc1C(=O)O (stereo not drawn) [Compound 163, 6-[8-(1,3-benzothiazol-2-ylcarbamoyl)-3,4-dihydro-1H-2,7-naphthyridin-2-yl]-3-[3-[[7-[2-[[3-(2,6-dioxo-3-piperidyl)-1-methyl-indazol-6-yl]amino]-2-oxo-ethyl]-7-azaspiro[3.5]nonan-2-yl]oxy]-2-methyl-phenyl]pyridine-2-carboxylic acid]
6 | 10 to 100 nM | C (50% ≤ Ymin < 70%) | Cn1nc(C2CCC(=O)NC2=O)c2ccc(NC(=O)CN3CCC(CCCOc4cccc(-c5ccc(N6CCc7cccc(C(=O)Nc8nc9ccccc9s8)c7C6)nc5C(=O)O)c4F)CC3)c(F)c21 (stereo not drawn) [Compound 211]
7 | < 10 nM | B (30% ≤ Ymin < 50%) | Cc1cc(OC[C@H]2C[C@@H]2CC2CCN(CC(=O)Nc3ccc4c(C5CCC(=O)NC5=O)nn(C)c4c3)CC2)ccc1-c1ccc(N2CCc3cccc(C(=O)Nc4nc5ccccc5s4)c3C2)nc1C(=O)O (single isomer, unassigned) [Compound 1002a]
8 | 10 to 100 nM | A (Ymin < 30%) | COc1c(NC(=O)CN2CCC(CCCOc3ccc(-c4ccc(N5CCc6cccc(C(=O)Nc7nc8ccccc8s7)c6C5)nc4C(=O)O)c(F)c3)CC2)ccc2c(C3CCC(=O)NC3=O)nn(C)c12 (stereo not drawn) [Compound 201]
9 | < 10 nM | A (Ymin < 30%) | Cc1cc(OC2CC3(CCN(CC(=O)Nc4ccc5c(C6CCC(=O)NC6=O)nn(C)c5c4)CC3)C2)ccc1-c1ccc(N2CCc3cccc(C(=O)Nc4nc5ccccc5s4)c3C2)nc1C(=O)O (stereo not drawn) [Compound 112, 6-[8-(1,3-benzothiazol-2-ylcarbamoyl)-3,4-dihydro-1H-isoquinolin-2-yl]-3-[4-[[7-[2-[[3-(2,6-dioxo-3-piperidyl)-1-methyl-indazol-6-yl]amino]-2-oxo-ethyl]-7-azaspiro[3.5]nonan-2-yl]oxy]-2-methyl-phenyl]pyridine-2-carboxylic acid]

Reference: US20260216170A1, “TETRAHYDROISOQUINOLINE HETEROBIFUNCTIONAL BCL-XL DEGRADERS” (Treeline Biosciences, Inc., priority 2023, published 2026)
